Reference: US10676754B2, “Compositions and methods for producing plants resistant to glyphosate herbicide” (E I DU PONT DE NEMOURS AND COMPANY, priority 2014, dated 2020)

Legend:
maize plants = experiment: Glyphosate spray test on maize plants at V3 growth stage; format: in vivo
Protocol: TO plants grew well in the greenhouse and were fertile. A sample of TO plants was sprayed with a 1× dose of glyphosate at V3 growth stage using the spray booth setting of 20 gallons per acre. The 1× dose of glyphosate was prepared as follow: 2.55 ml Powermax in 300 ml water (active ingredient: glyphosate, N-(phosphonomethyl) glycine, in the form of its potassium salt at 48.7%). […] This TO plant was designated as hemizygous at the epsps locus.
A random sample of the F1 plants progeny of the E1 and E2 parental plants) was sprayed with 2.55 ml Powermax (glyphosate solution) in 300 ml water at the setting of 20 gallons per acre at the V3 stage of growth.

F2 maize embryos = experiment: Embryo rescue: germination of F2 embryos on rooting media containing glyphosate; format: in vivo
Protocol: For embryo rescue of the F2 progeny seedlings from selfed F1 plants, ears were harvested 18 days after pollination and sterilized in 20:80 bleach/water mix. Embryos were excised and placed on rooting media (272V—4.3 g/L Murashige and Skoog basal salt mixture, 5.0 ml/L MS vitamins stock solution, 100 mg/L mio-inositol, 40 g/L sucrose, 6 g/L Bacto Agar) with or without glyphosate at 0.1 mM, 0.5 mM, 1 mM, 3 mM concentration. They were transferred to a light room at 26° C. and allowed to germinate for 7 days. Embryos containing the wild-type EPSPS alleles, hemizygous and homozygous for the epsps-TIPS allele germinated on media without glyphosate. […] The presence of the epsps-TIPS allele in the analyzed seedlings is indicated as “positive” or “negative”, while the wild-type EPSPS allele copy number is indicated in the columns to the right (Table 14)

[1] = system: artificial I-SceI recognition site in maize genome; conditions: analyzed F1 plants, transgenic nuclease introduced by crossing and activated by gene excision; cited from earlier work
[2] = epsps-TIPS-containing F1 plants after spray

Row | Molecule | survival of plants (maize plants; F1 plants containing the epsps-TIPS edited allele, 2.55 ml Powermax in 300 ml water, 20 gallons per acre, V3) | leaf tissue damage (maize plants; F1 plants without the epsps-TIPS allele, 2.55 ml Powermax in 300 ml water, 20 gallons per acre, V3) | leaf tissue damage (maize plants; T0 plants hemizygous for epsps-TIPS alleles, 1× dose, V3, 20 gallons per acre, seven days after application) | growth of plants (maize plants; [2]) | leaf symptoms over time (maize plants; [2]) | leaf tissue damage (maize plants; one T0 plant hemizygous at the epsps locus, 1× dose, 14 days after application) | leaf tissue damage (maize plants; other T0 plantlets, 1× dose, V3, 20 gallons per acre, seven days after application) | tolerance of plants (maize plants; some epsps-TIPS edited maize T0 plants, 1× dose) | green seedling production (F2 maize embryos; 0.1 mM in rooting media, 7 days, 26° C., F2 embryos) | wild-type seedlings among germinating embryos (F2 maize embryos; 0.1 mM or any other concentration up to 3 mM in media) | green seedling production (F2 maize embryos; embryos homozygous for the epsps-TIPS allele, 1.0 mM) | green seedling production (F2 maize embryos; hemizygous embryos, 1.0 mM) | plants with mutations of the recognition sequence [1]
1 | O=C(O)CNCP(=O)(O)O [glyphosate, N-phosphonomethylglycine] | survived | severe leaf tissue damage | no leaf tissue damage | slowed down | bleached sectors of the leaf tissue on newly emerging leaves | no damage to the leaf tissue | severely damaged | some level of tolerance | only embryos containing the epsps-TIPS alleles produced green seedlings | No wild-type seedlings were detected | produced green seedlings | did not | 
2 | I-SceI: wild type yeast I-SceI homing nuclease (protein, UniProt P03882 1-235, looked up) Intron-encoded endonuclease …: MKNIKKNQVMNLGPNSKLLKEYKSQLIELNIEQFEAGIGLILGDAYIRSRDEGKTYCMQFEWKNKAYMDHVCLLYDQWVLSPPHKKERVNHLGNLVITWGAQTFKHQAFNKLANLFIVNNKKTIPNNLVENYLTPMSLAYWFMDDGGKWDYNKNSTNKSIVLNTQSFTFEEVEYLVKGLRNKFQLNCYVKINKNKPIIYIDSMSYLIFYNLIKPYLIPQMMYKLPNTISSETFLK |  |  |  |  |  |  |  |  |  |  |  |  | 1%
